Experimental data reported in patent US8470889B2 (TRT Pharma Inc., priority 2008, dated 2013).

Tests used:
[1] = system: NF-κB-dependent luciferase activity induced by expression of IKKi, TBK1, IKKb and p65; test: NF-κB-dependent luciferase activity in HEK293 cells; assay type: cell-based; conditions: 24 h, FIG. 11A-C
Experimental: Compound 10 inhibits IKKβ, IKKε and TBK1 and suppresses NF-κB activation. […] HEK293 cells were transiently transfected with NF-κB-Luc or ISRE-Luc, co-transfected with plasmid encoding IKKi, TBK1, IKKb, p65 or IRF3 (5D), using Lipofectamine™ 2000 reagent (Invitrogen). The transfected cells were treated with DMSO vehicle and test compounds at designated doses for 24 h. Luciferase activity was evaluated using Dual Luciferase Assay System (Promega) and expressed as fold of induction related to the basal level of the reporter gene after normalization with cotransfected Renilla relative light units.
Now referring to FIG. 18, the impact of compounds 10, and SC345, SC346 and SC347 on the NF-κB-dependent luciferase activity induced by expression of TBK1 and IKKβ. HEK293 cells were transiently transfected with NF-κB-Luc, co-transfected with plasmid encoding TBK1 or IKKβ, using Lipofectamine™ 2000 reagent (Invitrogen). The transfected cells were treated with DMSO vehicle and test compounds at 2.5 μM for 24 h. Luciferase activity was evaluated using Dual Luciferase Assay System (Promega) and expressed as fold of induction related to the basal level of the reporter gene after normalization with cotransfected Renilla relative light units.

[2] = system: DU145 cells; test: IL-6 secretion, Human IL-6 ELISA; assay type: cell-based; conditions: DU-145 cells, 24 hr
[3] = system: Bic-LNCaP cells; test: MTT cellular growth, Bic-LNCaP; assay type: cell-based; conditions: FIG. 10
[4] = system: LNCaP cells; conditions: human, 72 h;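 further: MTT formazan absorbance at 600 nm read after 72 h of compound exposure, IC50 fitted by nonlinear regression of dose-response curves, samples run in triplicate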
Experimental: MDA PCa 2b was seeded at the same density in medium BRFF-HPC1 (Athena Enzyme Systems, Baltimore, Md., USA) supplemented with 20% FBS. After overnight incubation, the medium was changed to a fresh medium containing different concentrations of test compounds diluted from stock DMSO solution. The final concentration of DMSO is 0.5%. After 72 h of incubation with test compounds, 20 μL of 3-(4,5-dimethyl thiazol-2-yl)-2,5-diphenyltetrazolium bromide (MTT) solution (5 mg/mL in PBS) were added to each well and incubated further for 2 h. Next, the supernatant was aspirated and the MTT formazan formed by metabolically viable cells was dissolved in 100 μL of isopropanol. The plates were mixed for 30 min, and the absorbance was measured at 600 nm on a plate reader (FLUOstar OPTIMA, BMG LabTech). All samples were in triplicate. The IC50 values were determined from dose-response curves by nonlinear regression using PRISM v5.00 (GraphPad Software Inc, La Jolla, Calif., USA).
The in vitro cytotoxicity of 1-20 were evaluated by MTT assays in a panel of prostate cancer cell lines, including LNCaP, MDA PCa 2b, 22Rv1, C4-2B and PC-3.

Structure (SMILES) | NF-κB-dependent luciferase activity induced by expression of IKKi, TBK1, IKKb and p65 [1] | secretion of IL-6 [2] | activity against Bic-LNCaP cells [3] | IC50 [4] [nM]
CC1(C)CCC(O)C=C1/C=C/C(=O)/C=C/c1csc2ccccc12 (stereo not shown) [Compound B92] | potent effects | suppress secretion |  | 
CC1(C)CCC(O)C=C1/C=C/C(=O)/C=C/c1cnc2ccccc2c1 (stereo not shown) [Compound B95] |  |  | remains active | 630
